Usually DC50 stands for the concentration giving 50% degradation.

Among the data in patent US20240018158A1, “BRM TARGETING COMPOUNDS AND ASSOCIATED METHODS OF USE” (Prelude Therapeutics Incorporated, priority 2020, published 2024) are DC50 and Dmax values, retold here.

This assay concerns the target SMARCA2 (Homo sapiens (Human), UniProt P51531). In words: SMARCA2 HiBiT degradation assay in HEK293T cells. The class given is cell-based. As to conditions: 293T HiBiT assay, 24 h; for DC50: read-out: DC50 (SM2-293T) SMARCA2 degradation potency; for Dmax: HEK-293T, read-out: Dmax % (SM2-293T) maximum SMARCA2 degradation within the concentrations tested. On the procedure: HiBiT peptide knock-in of SMARCA2 in LgBiT expressing HEK293T cells was performed by CRISPR-mediated tagging system as described Promega. The homozygous HiBiT knock-in on c-terminus SMARCA2 was confirmed by sanger sequence. SMARCA2-HiBiT knock-in Hela monoclonal cell (CS302366) and SMARCA4-HiBiT knock-in Hela monoclonal cell (CS3023226) were purchased from Promega. The heterozygous HiBiT-knock-in was confirmed by sanger sequence in both SMARCA2-HiBiT and SMARCA4-HiBiT monoclonal cells. Compounds were prepared in a low dead volume plate at 3-fold serial dilution, and then transferred 25 nL/well into a 384 well plate (Corning: #356661) by Agilent Bravo liquid dispenser. SMARCA2-HiBiT monoclonal HEK293T cells were added at 5,000/well/25 uL into the compound containing 384 well plate. After 24 h incubation, 25 uL/well of Nano-Glo HiBiT Lytic detection buffer (Promega: N3050) was added to the wells and incubate for 10 min on a shaker, centrifuged for 5 min, and then RLU was detected on a microplate reader (Envision, PerkinElmer). The RLU ratio values are normalized to percent inhibition as follows: % inhibition=((HC−LC)−(compound−LC))/(HC−LC))*100, where HC=high control=mean signal of DMSO only; LC=low control=mean signal of 100% inhibition of RLU by 1 μM PRT1001728. An 11-point dose response curve for each compound will be generated using normalized % inhibition to determine IC50 values based on the equation: Y=Bottom+((Top-Bottom)/(1+((IC50/X)^Slope))), where Y is the % inhibition in the presence of X inhibitor concentration; Top=the top plateau of the curve; Bottom=the bottom plateau of the curve; Slope=Hill coefficient; DC50=concentration of compound with 50% degradation in relation to top/high control. DC50 values were determined by using XLfit Model 205.

Chain of SMARCA2 (P51531 whole entry): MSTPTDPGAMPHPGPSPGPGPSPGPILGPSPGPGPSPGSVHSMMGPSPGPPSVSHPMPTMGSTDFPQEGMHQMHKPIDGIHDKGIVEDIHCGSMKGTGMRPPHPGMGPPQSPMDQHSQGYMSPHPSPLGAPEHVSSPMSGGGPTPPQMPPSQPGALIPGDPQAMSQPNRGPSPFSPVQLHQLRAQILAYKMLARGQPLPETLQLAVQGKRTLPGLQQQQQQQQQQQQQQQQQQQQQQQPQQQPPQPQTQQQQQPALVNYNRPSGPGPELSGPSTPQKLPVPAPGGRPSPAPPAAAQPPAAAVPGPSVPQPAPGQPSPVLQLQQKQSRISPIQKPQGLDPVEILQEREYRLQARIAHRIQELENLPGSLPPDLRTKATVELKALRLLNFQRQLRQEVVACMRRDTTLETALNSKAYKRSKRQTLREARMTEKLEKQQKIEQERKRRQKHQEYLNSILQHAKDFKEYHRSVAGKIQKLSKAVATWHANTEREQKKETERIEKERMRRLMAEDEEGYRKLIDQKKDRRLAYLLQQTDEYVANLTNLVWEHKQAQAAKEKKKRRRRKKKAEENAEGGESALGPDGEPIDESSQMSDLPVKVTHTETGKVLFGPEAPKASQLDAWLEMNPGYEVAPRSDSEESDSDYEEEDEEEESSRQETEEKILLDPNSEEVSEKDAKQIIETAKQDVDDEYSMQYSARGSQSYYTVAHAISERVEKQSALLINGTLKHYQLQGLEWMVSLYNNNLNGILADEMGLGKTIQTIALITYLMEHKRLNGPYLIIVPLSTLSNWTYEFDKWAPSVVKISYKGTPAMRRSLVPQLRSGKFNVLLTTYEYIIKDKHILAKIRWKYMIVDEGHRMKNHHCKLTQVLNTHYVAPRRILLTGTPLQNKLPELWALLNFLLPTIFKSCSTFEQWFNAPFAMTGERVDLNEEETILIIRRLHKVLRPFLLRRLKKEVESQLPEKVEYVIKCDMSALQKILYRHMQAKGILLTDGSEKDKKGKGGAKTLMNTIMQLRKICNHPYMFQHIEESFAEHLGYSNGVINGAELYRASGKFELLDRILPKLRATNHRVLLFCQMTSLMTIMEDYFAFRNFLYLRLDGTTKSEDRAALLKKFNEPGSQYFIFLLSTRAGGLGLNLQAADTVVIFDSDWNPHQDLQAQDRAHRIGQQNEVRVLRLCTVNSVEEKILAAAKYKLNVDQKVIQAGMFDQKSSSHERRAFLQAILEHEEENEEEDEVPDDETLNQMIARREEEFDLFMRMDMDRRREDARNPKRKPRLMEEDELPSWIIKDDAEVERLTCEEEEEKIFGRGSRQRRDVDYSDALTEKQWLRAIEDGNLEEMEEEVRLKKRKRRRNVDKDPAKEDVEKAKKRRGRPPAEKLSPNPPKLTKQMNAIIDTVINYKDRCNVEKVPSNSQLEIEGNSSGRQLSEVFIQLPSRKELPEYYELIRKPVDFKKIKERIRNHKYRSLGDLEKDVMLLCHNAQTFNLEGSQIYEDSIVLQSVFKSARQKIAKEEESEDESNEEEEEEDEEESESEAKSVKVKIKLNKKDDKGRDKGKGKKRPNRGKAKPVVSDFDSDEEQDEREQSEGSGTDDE

As for `Cc1ncsc1-c1ccc([C@H](C)NC(=O)[C@@H]2C[C@@H](O)CN2C(=O)[C@@H](c2cc(OCCN3CCCC(N4CCN5c6cc(-c7ccccc7O)nnc6NC[C@H]5C4)CC3)no2)C(C)C)cc1` (stereo partly drawn) [Example 16, (2S,4R)-4-hydroxy-1-((2R)-2-(3-(2-(4-((S)-2-(2-hydroxyphenyl)-5,6,6a,7,9,10-hexahydro-8H-pyrazino[1′,2′:4,5]pyrazino[2,3-c]pyridazin-8-yl)azepan-1-yl)ethoxy)isoxazol-5-yl)-3-methylbutanoyl)-N-((S)-1-(4-(4-methylthiazol-5-yl)phenyl)ethyl)pyrrolidine-2-carboxamide], the DC50 is less than 100 nM and the Dmax is more than 75%.

Turning to `Cc1ncsc1-c1ccc([C@H](C)NC(=O)[C@@H]2C[C@@H](O)CN2C(=O)[C@@H](c2cc(OC(C)CN3CCC(N4CCN5c6cc(-c7ccccc7O)nnc6NC[C@H]5C4)CC3)no2)C(C)C)cc1` (stereo partly drawn) [Example 17, (2S,4R)-4-hydroxy-1-((2R)-2-(3-((1-(4-((S)-2-(2-hydroxyphenyl)-5,6,6a,7,9,10-hexahydro-8H-pyrazino[1′,2′:4,5]pyrazino[2,3-c]pyridazin-8-yl)piperidin-1-yl)propan-2-yl)oxy)isoxazol-5-yl)-3-methylbutanoyl)-N-((S)-1-(4-(4-methylthiazol-5-yl)phenyl)ethyl)pyrrolidine-2-carboxamide], the DC50 is less than 100 nM and the Dmax is more than 75%.

For the compound `Cc1ncsc1-c1ccc([C@H](C)NC(=O)[C@@H]2C[C@@H](O)CN2C(=O)[C@@H](c2cc(OCCN3CCC(CN4CCC(N5CCN6c7cc(-c8ccccc8O)nnc7NC[C@H]6C5)CC4)CC3)no2)C(C)C)cc1` [Example 20, (2S,4R)-4-hydroxy-1-((R)-2-(3-(2-(4-((4-((S)-2-(2-hydroxyphenyl)-5,6,6a,7,9,10-hexahydro-8H-pyrazino[1′,2′:4,5]pyrazino[2,3-c]pyridazin-8-yl)piperidin-1-yl)methyl)piperidin-1-yl)ethoxy)isoxazol-5-yl)-3-methylbutanoyl)-N-((S)-1-(4-(4-methylthiazol-5-yl)phenyl)ethyl)pyrrolidine-2-carboxamide], the half-maximal degradation concentration (DC50) is less than 100 nM and the Dmax was more than 75%.

As to `Cc1ncsc1-c1ccc([C@H](C)NC(=O)[C@@H]2C[C@@H](O)CN2C(=O)[C@@H](c2cc(OCCN3CCN(CCN4CCC(N5CCN6c7cc(-c8ccccc8O)nnc7NC[C@H]6C5)CC4)CC3)no2)C(C)C)cc1` [Example 21, (2S,4R)-4-hydroxy-1-((R)-2-(3-(2-(4-(2-(4-((S)-2-(2-hydroxyphenyl)-5,6,6a,7,9,10-hexahydro-8H-pyrazino[1′,2′:4,5]pyrazino[2,3-c]pyridazin-8-yl)piperidin-1-yl)ethyl)piperazin-1-yl)ethoxy)isoxazol-5-yl)-3-methylbutanoyl)-N-((S)-1-(4-(4-methylthiazol-5-yl)phenyl)ethyl)pyrrolidine-2-carboxamide], the DC50 was less than 100 nM and the Dmax was more than 75%.

With `Cc1ncsc1-c1ccc([C@H](C)NC(=O)[C@@H]2C[C@@H](O)CN2C(=O)[C@@H](c2cc(OCCN3CCC(CCN4CCC(N5CCN6c7cc(-c8ccccc8O)nnc7NC[C@H]6C5)CC4)CC3)no2)C(C)C)cc1` [Example 22, (2S,4R)-4-hydroxy-1-((R)-2-(3-(2-(4-(2-(4-((S)-2-(2-hydroxyphenyl)-5,6,6a,7,9,10-hexahydro-8H-pyrazino[1′,2′:4,5]pyrazino[2,3-c]pyridazin-8-yl)piperidin-1-yl)ethyl)piperidin-1-yl)ethoxy)isoxazol-5-yl)-3-methylbutanoyl)-N-((S)-1-(4-(4-methylthiazol-5-yl)phenyl)ethyl)pyrrolidine-2-carboxamide], the DC50 was less than 100 nM and the Dmax is more than 75%.

On to `Cc1ncsc1-c1ccc([C@H](C)NC(=O)[C@@H]2C[C@@H](O)CN2C(=O)[C@@H](c2cc(OC(C)CN3CCCC(CN4CCN5c6cc(-c7ccccc7O)nnc6NC[C@H]5C4)C3)no2)C(C)C)cc1` (stereo partly drawn) [Example 23, (2S,4R)-4-hydroxy-1-((2R)-2-(3-((1-(3-(((S)-2-(2-hydroxyphenyl)-5,6,6a,7,9,10-hexahydro-8H-pyrazino[1′,2′:4,5]pyrazino[2,3-c]pyridazin-8-yl)methyl)piperidin-1-yl)propan-2-yl)oxy)isoxazol-5-yl)-3-methylbutanoyl)-N-((S)-1-(4-(4-methylthiazol-5-yl)phenyl)ethyl)pyrrolidine-2-carboxamide], for which the DC50 is less than 100 nM and the Dmax was more than 75%.

Take `Cc1ncsc1-c1ccc([C@H](C)NC(=O)[C@@H]2C[C@@H](O)CN2C(=O)[C@@H](c2cc(OC(C)CN3CCCC(CN4CCN5c6cc(-c7ccccc7O)nnc6NC[C@H]5C4)C3)no2)C(C)C)cc1` (stereo partly drawn) [Example 24, (2S,4R)-4-hydroxy-1-((2R)-2-(3-((1-(3-(((S)-2-(2-hydroxyphenyl)-5,6,6a,7,9,10-hexahydro-8H-pyrazino[1′,2′:4,5]pyrazino[2,3-c]pyridazin-8-yl)methyl)piperidin-1-yl)propan-2-yl)oxy)isoxazol-5-yl)-3-methylbutanoyl)-N-((S)-1-(4-(4-methylthiazol-5-yl)phenyl)ethyl)pyrrolidine-2-carboxamide]: the DC50 was less than 100 nM.

For the compound `Cc1ncsc1-c1ccc([C@H](C)NC(=O)[C@@H]2C[C@@H](O)CN2C(=O)C(c2cc(CN3CCC(CN4CCN5c6cc(-c7ccccc7O)nnc6NC[C@H]5C4)CC3)no2)C(C)C)cc1` (stereo partly drawn) [Example 32, (2S,4R)-4-hydroxy-1-(2-(3-((4-(((S)-2-(2-hydroxyphenyl)-5,6,6a,7,9,10-hexahydro-8H-pyrazino[1′,2′:4,5]pyrazino[2,3-c]pyridazin-8-yl)methyl)piperidin-1-yl)methyl)isoxazol-5-yl)-3-methylbutanoyl)N-((S)-1-(4-(4-methylthiazol-5-yl)phenyl)ethyl)pyrrolidine-2-carboxamide], the DC50 was less than 100 nM and the Dmax is more than 75%.

As to `Cc1ncsc1-c1ccc([C@H](C)NC(=O)[C@@H]2C[C@@H](O)CN2C(=O)[C@@H](c2cc(CCCN3CCC(N4CCN5c6cc(-c7ccccc7O)nnc6NC[C@H]5C4)CC3)no2)C(C)C)cc1` [Example 33, (2S,4R)-4-hydroxy-1-((R)-2-(3-(3-(4-((S)-2-(2-hydroxyphenyl)-5,6,6a,7,9,10-hexahydro-8H-pyrazino[1′,2′:4,5]pyrazino[2,3-c]pyridazin-8-yl)piperidin-1-yl)propyl)isoxazol-5-yl)-3-methylbutanoyl)-N-((S)-1-(4-(4-methylthiazol-5-yl)phenyl)ethyl)pyrrolidine-2-carboxamide], the DC50 was less than 100 nM and the Dmax was more than 75%.

As to `CC(C)[C@@H](C(=O)N1C[C@H](O)C[C@H]1C(=O)N[C@@H](C)c1ccc(C#N)cc1)c1cc(OCCN2CCC(CN3CCN4c5cc(-c6ccccc6O)nnc5NC[C@H]4C3)CC2)no1` [Example 35, (2S,4R)—N-((S)-1-(4-cyanophenyl)ethyl)-4-hydroxy-1-((R)-2-(3-(2-(4-(((S)-2-(2-hydroxyphenyl)-5,6,6a,7,9,10-hexahydro-8H-pyrazino[1′,2′:4,5]pyrazino[2,3-c]pyridazin-8-yl)methyl)piperidin-1-yl)ethoxy)isoxazol-5-yl)-3-methylbutanoyl)pyrrolidine-2-carboxamide], the DC50 was less than 100 nM and the Dmax is more than 75%.

Turning to `Cc1ncsc1-c1ccc([C@H](C)NC(=O)[C@@H]2C[C@@H](O)CN2C(=O)[C@@H](c2cc(OCCN3CCC(CN4CCN5c6cc(-c7ccccc7O)nnc6NC[C@H]5C4)CC3)no2)C(C)C)c(F)c1` [Example 36, (2S,4R)-N-((S)-1-(2-fluoro-4-(4-methylthiazol-5-yl)phenyl)ethyl)-4-hydroxy-1-((R)-2-(3-(2-(4-(((S)-2-(2-hydroxyphenyl)-5,6,6a,7,9,10-hexahydro-8H-pyrazino[1′,2′:4,5]pyrazino[2,3-c]pyridazin-8-yl)methyl)piperidin-1-yl)ethoxy)isoxazol-5-yl)-3-methylbutanoyl)pyrrolidine-2-carboxamide], the DC50 was less than 100 nM and the Dmax is more than 75%.

As for `Cc1nccn1-c1ccc([C@H](C)NC(=O)[C@@H]2C[C@@H](O)CN2C(=O)[C@@H](c2cc(OCCN3CCC(CN4CCN5c6cc(-c7ccccc7O)nnc6NC[C@H]5C4)CC3)no2)C(C)C)cc1` [Example 37, (2S,4R)-4-hydroxy-1-((R)-2-(3-(2-(4-(((S)-2-(2-hydroxyphenyl)-5,6,6a,7,9,10-hexahydro-8H-pyrazino[1′,2′:4,5]pyrazino[2,3-c]pyridazin-8-yl)methyl)piperidin-1-yl)ethoxy)isoxazol-5-yl)-3-methylbutanoyl)-N-((S)-1-(4-(2-methyl-1H-imidazol-1-yl)phenyl)ethyl)pyrrolidine-2-carboxamide], the DC50 was less than 100 nM and the Dmax was more than 75%.
